Structures can show the parent of a compound that is named as a salt.
Tests used:
[1] = test system: hypercholesterolemic rat models; assay: Cholesterol lowering activity in hypercholesterolemic rat models; type: in vivo; conditions: hypercholesterolemic male Sprague Dawley rats, oral, 3 mg/kg/day, serum
Procedure: • ii) Cholesterol lowering activity in hypercholesterolemic rat models
Male Sprague Dawley rats stock bred in Zydus animal house were maintained under 12 hour light and dark cycle at 25±1° C. Rats of 100-150 g body weight range were used for the experiment. Animals were made hypercholesterolemic by feeding 1% cholesterol and 0.5% sodium cholate mixed with standard laboratory chow (NIN, Hyderabad, India) and water ad libitum for 5 days. The animals were maintained on the same diet throughout the experiment [Petit D., Bonnefis M. T., Rey C and Infante R., Effects of ciprofibrate on liver lipids and lipoprotein synthesis in normal and hyperlipidemic rats, Atherosclerosis, 74, 215-225 (1988)].
The test compounds were administered orally at a dose 0.03 to 50 mg/kg/day for 4 days, after suspending it in 0.25% CMC or dissolving it in water when compound is water-soluble. Control group was treated with vehicle alone (0.25% of Carboxymethylcellulose; dose 10 ml/kg).
The blood samples were collected in fed state on 0th and 1 hour after drug administration on 6th day of the treatment. The blood was collected from the retro-orbital sinus through non-heparinised capillary and the serum samples were analyzed for triglyceride and total cholesterol using commercial kits (Zydus-Cadila, Pathline, Ahmedabad, India). LDL and HDL by commercial kits (point Scientific, USA). LDL and VLDL cholesterol were calculated from the data obtained for total cholesterol, HDL and triglyceride.
The reduction in VLDL cholesterol is calculated according to the formula.
VLDL cholesterol in mg/dl=Total cholesterol−HDL cholesterol−LDL cholesterol

C57BL/KsJ-db/db mice = assay: Serum glucose lowering activity in db/db mice models; type: in vivo; conditions: male C57BL/KsJ-db/db mice, oral gavage, 3 mg/kg/day, 6 days, one hour after dosing on 6th day
Procedure: • iii) Serum glucose lowering activity in db/db mice models
Homozygous animal C57BL/KsJ-db/db mice are obese, hyperglycemic, hyperinsulinemic and insulin resistant (J. Clin. Invest., 85, 962-967, 1990), whereas heterozygous are lean and normoglycemic. The homozygous animals very closely mimic the human type II diabetes when blood sugar levels are not sufficiently controlled. Since this type of model resembles human type II diabetes mellitus, the compounds of the invention were tested for their antidiabetic activity in this model.
Male C57 BL/KsJ-db/db mice of 8 to 14 weeks age, having body weight range of 40 to 60 grams, procured from the Jackson Laboratory, USA, were used in the experiment.
Test compounds were suspended on 0.25% carboxymethyl cellulose or dissolved in water when the compound is water soluble and administered to test group containing 6 animals at a dose of 0.001 mg to 50 mg/kg through oral gavage daily for 6 days. The control group received vehicle (dose 10 ml/kg). On the 6th day, one hour after the drug dosing, blood was collected from retro-orbital sinus and the serum was analyzed for glucose and triglycerides were measured using commercial kits (Zydus-Cadila, Pathline, Ahmedabad, India). The serum glucose and triglyceride lowering activities of the test compound was calculated according of the formula: […]

Swiss albino mice = assay: Serum triglyceride and total cholesterol lowering activity in Swiss albino mice; type: in vivo; conditions: male Swiss albino mice, oral, 3 mg/kg/day, 6 days, fed state 1 hour after dosing on 6th day
Procedure: Male Swiss albino mice (SAM) were bred in Zydus animal house. All these animals were maintained under 12 hour light and dark cycle at 25±1° C. Animals were given standard laboratory chow (NIN, Hyderabad, India) and water ad libitum. SAM of 20-30 g body weight range were used.
The test compounds were administered orally to Swiss albino mice at 0.001 to 50 mg/kg/day dose for 6 days. The compound was administered after suspending it in 0.25% CMC or dissolving it in water, when compound is water-soluble. Control mice were treated with vehicle (0.25% of Carboxymethylcellulose; dose 10 ml/kg).
The blood samples were collected on 0th day and in fed state 1 hour after drug administration on 6th day of the treatment. The blood was collected in non heparinised capillary and the serum was analyzed for triglyceride and total cholesterol (Wieland, O. Methods of Enzymatic analysis. Bergermeyer, H., O., Ed., 1963. 211-214; Trinder, P. Ann. Clin. Biochem. 1969. 6: 24-27). Measurement of serum triglyceride and total cholesterol was done using commercial kits (Zydus-Cadila, Pathline, Ahmedabad, India).
Percentage reduction in triglycerides/total cholesterol were calculated according to the formula: […]

CCO[C@H](CN)Cc1ccc(OCc2nc(-c3ccccc3)oc2C)cc1.O=C(O)C(=O)O
melting point: 135 °C

CCO[C@H](CN)Cc1ccc(OCCc2nc(-c3ccccc3)oc2C)cc1 (as salt: bisulphate) [Compound 167, Bisulphate Salt of 2S-Ethoxy-3-{4-[2-(5-methyl-2-phenyl-oxazol-4-yl)-ethoxy]-phenyl}-propyl amine]
melting point: 175 °C

CCO[C@@H](Cc1ccc(OCc2nc(-c3cccs3)oc2C)cc1)C(=O)O [Compound 27, (2S)-Ethoxy-3-[4-(5-methyl-2-thiophen-2-yl-oxazol-4-ylmethoxy)-phenyl]-propanoic acid]
Total cholesterol reduction (%) [1]: 44%

CCO[C@H](CO)Cc1ccc(OCCc2nc(-c3ccccc3)oc2C)cc1 [Compound 64, (2S)-Ethoxy-3-{4-[2-(5-methyl-2-phenyl-oxazol-4-yl)-ethoxy]-phenyl}-propan-1-ol]
Plasma TG reduction (%) (C57BL/KsJ-db/db mice): 74% | Serum Glucose reduction (%) (C57BL/KsJ-db/db mice): 56%

CCOC[C@H](Cc1ccc(OCCc2nc(-c3ccccc3)oc2C)cc1)OCC [Compound 84, 1-Ethoxy-(2S)-ethoxy-3-[4-{2-(5-methyl-2-phenyl-oxazol-4-yl)-ethoxy}-phenyl]-propane]
Plasma TG reduction (%) (C57BL/KsJ-db/db mice): 47% | Serum Glucose reduction (%) (C57BL/KsJ-db/db mice): 47%

CCO[C@H](COC(=O)CBr)Cc1ccc(OCCc2nc(-c3ccccc3)oc2C)cc1 [Compound 90, (2S)-Ethoxy-3-{4-[2-(5-methyl-2-phenyl-oxazol-4-yl)-ethoxy]-phenyl}-propyl bromo-acetate]
Total cholesterol reduction (%) [1]: 56%

CCO[C@H](CN)Cc1ccc(OCCc2nc(-c3ccccc3)oc2C)cc1 [Compound 134, (2S)-Ethoxy-3-{4-[2-(5-methyl-2-phenyl-oxazol-4-yl)-ethoxy]-phenyl}-propylamine]
% Triglyceride lowering (Swiss albino mice): 54%

CCO[C@H](CN)Cc1ccc(OCc2nc(-c3ccccc3)oc2C)cc1 [Compound 141, (2S)-Ethoxy-3-{4-[5-methyl-2-phenyl-oxazol-4-ylmethoxy]-phenyl}-propylamine]
Total cholesterol reduction (%) [1]: 61%

— US20090275565A1, “Substituted aralkyl derivatives” (CADILA HEALTHCARE LIMITED, priority 2002, published 2009)
